Test results as given in the NIST ThermoML archive (doi:10.1016/j.jct.2019.02.022).

Assay: xn = mol fraction of the nth substance listed
Conditions: Liquid, Gas absorption technique

CCn1cc[n+](C)c1.O=S(=O)([N-]S(=O)(=O)C(F)(F)F)C(F)(F)F + O=C=O
binary diffusion coefficient (303.15 K, 111.3 kPa, x2 = 0): 6.15e-10 m2/s
binary diffusion coefficient (313.15 K, 113.7 kPa, x2 = 0): 7.22e-10 m2/s
binary diffusion coefficient (323.15 K, 108.4 kPa, x2 = 0): 9.52e-10 m2/s
binary diffusion coefficient (333.15 K, 113.2 kPa, x2 = 0): 1.19e-09 m2/s
binary diffusion coefficient (343.15 K, 113.7 kPa, x2 = 0): 1.56e-09 m2/s

Cn1cc[n+](CCO)c1.O=S(=O)([N-]S(=O)(=O)C(F)(F)F)C(F)(F)F + O=C=O
binary diffusion coefficient (303.15 K, 106.2 kPa, x2 = 0): 1.31e-10 m2/s
binary diffusion coefficient (313.15 K, 109.9 kPa, x2 = 0): 2.67e-10 m2/s
binary diffusion coefficient (323.15 K, 111.2 kPa, x2 = 0): 3.97e-10 m2/s

Cn1cc[n+](CCO)c1.O=S(=O)([N-]S(=O)(=O)C(F)(F)F)C(F)(F)F + S
binary diffusion coefficient (303.15 K, 111.7 kPa, x2 = 0): 2.07e-10 m2/s
binary diffusion coefficient (313.15 K, 113.9 kPa, x2 = 0): 3.35e-10 m2/s
binary diffusion coefficient (323.15 K, 114.5 kPa, x2 = 0): 5.51e-10 m2/s

Cn1cc[n+](CCO)c1.O=S(=O)([O-])C(F)(F)F + S
binary diffusion coefficient (303.15 K, 107 kPa, x2 = 0): 2.28e-10 m2/s
binary diffusion coefficient (313.15 K, 109.6 kPa, x2 = 0): 2.93e-10 m2/s
binary diffusion coefficient (323.15 K, 113.9 kPa, x2 = 0): 3.66e-10 m2/s

Cn1cc[n+](CCO)c1.F[P-](F)(F)(F)(F)F [3-(2-hydroxyethyl)-1-methylimidazolium hexafluorophosphate] + O=C=O
binary diffusion coefficient (303.15 K, 105.6 kPa, x2 = 0): 1.39e-10 m2/s
binary diffusion coefficient (313.15 K, 109.3 kPa, x2 = 0): 2.15e-10 m2/s
binary diffusion coefficient (323.15 K, 110.6 kPa, x2 = 0): 2.7e-10 m2/s

Cn1cc[n+](CCO)c1.F[P-](F)(F)(F)(F)F [3-(2-hydroxyethyl)-1-methylimidazolium hexafluorophosphate] + S
binary diffusion coefficient (303.15 K, 111.3 kPa, x2 = 0): 1.55e-10 m2/s
binary diffusion coefficient (313.15 K, 113.7 kPa, x2 = 0): 2.37e-10 m2/s
binary diffusion coefficient (323.15 K, 108.4 kPa, x2 = 0): 3.74e-10 m2/s

S [hydrogen sulfide] + CCn1cc[n+](C)c1.O=S(=O)([N-]S(=O)(=O)C(F)(F)F)C(F)(F)F
binary diffusion coefficient (303.15 K, 109.8 kPa, x1 = 0): 7.98e-10 m2/s
binary diffusion coefficient (313.15 K, 108.6 kPa, x1 = 0): 9.06e-10 m2/s
binary diffusion coefficient (323.15 K, 109.4 kPa, x1 = 0): 1.17e-09 m2/s
